The text below walks through data of patent publication US20240418703A1, “CULTURE MEDIUM FOR PRIMARY OVARIAN CANCER CELLS, CULTURE METHOD AND APPLICATION THEREOF” (PRECEDO PHARMACEUTICALS CO., LTD, priority 2021, published 2024).

Where two headings read alike, the source gives them in different places.

The test system of test [1] is primary ovarian cancer cells. Description: Effect of single additives in Basal Medium on proliferation of primary ovarian cancer cells (cell counting). The test is classed as cell-based, human. The arrangement: key: +: compared with the Basal Medium, the culture medium added with the additive(s) has the effect of promoting the proliferation of two cases of primary ovarian cancer cells isolated from ovarian cancer tissue; −: the culture medium added with the additive(s) has the effect of promoting the proliferation of one case of primary ovarian cancer cells isolated from ovarian cancer tissue; the culture medium added with the additive(s) has no significant effect on the proliferation of at least two cases of primary ovarian cancer cells isolated from ovarian cancer tissue. Here is the method: First, a Basal Medium containing initial medium was prepared. The initial medium may be selected from the group consisting of DMEM/F12, DMEM, F12, or RPMI-1640 commonly used in the art. In this example, the formulation of the Basal Medium is: DMEM/F12 medium (purchased from Corning)+100 μg/mL Primocin (purchased from InvivoGen, 0.2% (v/v), commercial product has a concentration of 50 mg/mL). Different types of additives (see Table 1) were added to the Basal Medium to prepare culture mediums for primary ovarian cancer cells with different components.
Tissue samples (intraoperative) of ovarian cancer solid tumor were obtained from patients by professional medical practitioner of professional medical institutions, and all patients have signed the informed consent. Intraoperative samples having the size of 0.25 cm^3, endoscopic samples having the size of 0.025 cm^3 were stored and transported using commercial tissue preservation solution (manufacturer: Miltenyi Biotec).
Tissue digestion solution: 1640 medium (Corning, 10-040-CVR), collagenase II (2 mg/mL), collagenase IV (2 mg/mL), DNase (50 U/mL), hyaluronidase (0.75 mg/mL), calcium chloride (3.3 mM), BSA (10 mg/mL).
• 3.1. Tissue samples were transferred from the ultra-clean workbench to a culture dish, and the tissue with blood was removed. The tissue samples were rinsed twice with Basal Medium, and then were transferred to another culture dish and mechanically cut with a sterile scalpel into tissue blocks of 1×1×1 mm^3 in size. • 3.2. The cut intraoperative tissues were aspirated into a 15 mL centrifuge tube, to which 5 mL of Basal Medium was added, fully mixed, and then centrifuged at 1500 rpm for 4 minutes. • 3.3. The supernatant was discarded, and the resultant was added with 1:3 mixture of Basal Medium and tissue digestion solution (the amount of tissue digestion solution added was about 10 mL tissue digestion solution for 1 g of tumor tissue). The samples were marked with names and numbers, sealed with sealing film, and then digested in a shaker (Zhichu Instrument ZQLY-180N) at 37° C., 300 rpm. The completion of digestion was determined via observation every 30 minutes, based on the existing of visible particles or not. The digestion time was 4 hours. • 3.4. After the digestion was completed, undigested tissue mass was filtered out through a […] filter mash. The tissue mass on the filter mash was rinsed into the centrifuge tube with Basal Medium to reduce cell loss. The resultant was centrifuged at 25° C., 1500 rpm for 4 minutes. • 3.5. […] If there were blood cells, 8 mL blood cell lysate (purchased from Sigma) was added in the resultant and fully mixed, lysed at 4° C. for 20 minutes, with inverting and mixing once during the process. The resultant was centrifuged at 25° C., 1500 rpm for 4 minutes. • 3.6. The supernatant was discarded and 2 mL Basal Medium was added to resuspend the cells for reserve.
• 4.1. Microscopic observation: a small amount of resuspended cells were plated in a culture dish, and the density and morphology of cancer cells were observed under a microscope (CNOPTEC, BDS400); • 4.2. Viable cell counting: 12 μL of the resuspended cell suspension was fully mixed with 12 μL of trypan blue staining solution (Sangon Biotech (Shanghai) Co., Ltd.), and then 20 μL of the mixture was added into a cell counting plate (Countstar, specifications: 50 pieces/box).
The primary ovarian cancer cells isolated from 2 cases of ovarian cancer tissues (numbered L40 and LQQ) according to the above step (2) were resuspended in the culture medium in Table 1, respectively and the cell number was counted. The Basal Medium was mixed with matrigel (Corning®, 356231) in a 50:1 ratio on ice. 300 μL of the mixture was plated and incubated in a 5% CO2 incubator at 37° C. for 25-35 minutes, preferably 30 minutes. The supernatant was discarded. […]

Test [2] has as its system primary ovarian cancer cells. Description: Effect of different concentrations of added factors on proliferation of primary ovarian cancer cells (ratio to Blank Control). It is filed as cell-based, human.
Where [3] appears, read: additive in Basal Medium at the final concentration, samples L40 and LQQ, 7-10 days of culture, versus Basal Medium.
Setting [4] is: factor added to the medium lacking it, FIGS. 2A-2L.
Setting [5] is: samples A26083, L56, L62, FIGS. 2A-2L.

On to `Cc1c[nH]c(-c2cnc(NCCNc3ccc(C#N)cn3)nc2-c2ccc(Cl)cc2Cl)n1` [CHIR99021, reference compound], for which the “Level of promoting proliferation” value in test [1] (setting [3]) is reported as “○”.
In the case of `CN1C(=O)C(c2c(F)cccc2F)N(C)c2nc(Nc3ccc(S(N)(=O)=O)cc3)ncc21` (centres unmarked) [Compound 1, 4-((7-(2,6-Difluorophenyl)-5,8-dimethyl-6-oxo-5,6,7,8-tetrahydropteridin-2-yl)amino)benzsulfamide], the “Level of promoting proliferation” value in test [1] (setting [3]) is “+”. The “concentration at which the cell proliferation effect is most significant” value in test [2] (setting [4]) came to 5 µM. Moreover, the “proliferation-promoting effect on primary ovarian cancer cells” value (“proliferation-promoting effect” for short) in test [2] (setting [5]) is on record as “significant proliferation-promoting effect”.
Take `Cc1cccc(-c2nn(C(=S)Nc3ccccc3)cc2-c2ccnc3ccccc23)n1` [Compound A8301, A8301, reference compound]: the “Level of promoting proliferation” value in test [1] (setting [3]) is “○”.
As to `C[C@@H](N)[C@H]1CC[C@H](C(=O)Nc2ccncc2)CC1` [Compound Y-27632, Y-27632, reference compound], the “Level of promoting proliferation” value in test [1] (setting [3]) is listed as “+”. The “concentration at which the cell proliferation effect is most significant” value in test [2] (setting [4]) turned out to be 5 µM. Further, in test [2] (setting [5]), the “proliferation-promoting effect” value is given as “significant proliferation-promoting effect”.
As for `Oc1ccc(-c2nc(-c3ccncc3)c(-c3ccc(F)cc3)[nH]2)cc1` [SB202190, reference compound], in test [1] (setting [3]), the “Level of promoting proliferation” value was “○”.
As for `NC(=O)c1ccc(-c2nc(-c3ccc4c(c3)OCO4)c(-c3ccccn3)[nH]2)cc1` [SB431542, reference compound], the “Level of promoting proliferation” value in test [1] (setting [3]) is recorded as “○”.
As for `C[C@]12CCC(=O)C=C1CC[C@@H]1[C@@H]2[C@@H](O)C[C@@]2(C)[C@H]1CC[C@]2(O)C(=O)CO` [hydrocortisone, reference compound], the “Level of promoting proliferation” value in test [1] (setting [3]) is on record as “○”.
The same measure, in the same setting: the same measure for `NC(=O)c1cccnc1` [nicotinamide, reference compound]: “○”.
Regarding `CCCCC[C@H](O)/C=C/[C@H]1[C@H](O)CC(=O)[C@@H]1C/C=C\CCCC(=O)O` [prostaglandin E2, reference compound], the “Level of promoting proliferation” value in test [1] (setting [3]) is “−”. The “concentration at which the cell proliferation effect is most significant” value in test [2] (setting [4]) was determined as 2.5 µM. Moreover, the “proliferation-promoting effect” value in test [2] (setting [5]) is “significant proliferation-promoting effect”.
On to `CC(=O)C(=O)[O-].[Na+]` [sodium pyruvate, reference compound], for which the “Level of promoting proliferation” value in test [1] (setting [3]) is reported as “○”.
As for basic fibroblast growth factor, the “Level of promoting proliferation” value in test [1] (setting [3]) was “○”.
On to cholera toxin, for which the “Level of promoting proliferation” value in test [1] is recorded as “+”. In test [2], the “concentration at which the cell proliferation effect is most significant” value came to 0.1 µg/mL, the “more preferable amount according to the results of this example” value fell in the range of 0.05 to 0.2 µg/mL, the “preferable amount according to the results of this example” value fell in the range of 50 to 800 ng/mL and the “proliferation-promoting effect” value is on record as “significant proliferation-promoting effect”.
With epidermal growth factor, the “Level of promoting proliferation” value in test [1] (setting [3]) was “−”. The “preferable amount according to the results of this example” value in test [2] (preferably, FIGS. 2A-2L) fell in the range of 2.5 to 40 ng/mL. Besides, the “proliferation-promoting effect” value in test [2] (setting [5]) is reported as “significant proliferation-promoting effect”.
With hepatocyte growth factor, in test [1] (setting [3]), the “Level of promoting proliferation” value was “○”.
In the case of insulin, the “Level of promoting proliferation” value in test [1] (setting [3]) is reported as “+”. In addition, the “concentration at which the cell proliferation effect is most significant” value in test [2] (setting [4]) stood at 9 µg/mL. Moreover, the “more preferable amount according to the results of this example” value in test [2] (more preferably, FIGS. 2A-2L) was in the range of 3 to 9 µg/mL. The “proliferation-promoting effect” value in test [2] (setting [5]) is “significant proliferation-promoting effect”.
As to insulin-like growth factor-1, the “Level of promoting proliferation” value in test [1] (setting [3]) is “+”. For the same molecule, the “concentration at which the cell proliferation effect is most significant” value in test [2] (setting [4]) worked out at 0.05 µg/mL. The “preferable amount according to the results of this example” value in test [2] (preferably, FIGS. 2A-2L) was 25 to 100 ng/mL. Moreover, in test [2] (setting [5]), the “proliferation-promoting effect” value is given as “significant proliferation-promoting effect”.
For the molecule neuregulin −1, the “Level of promoting proliferation” value in test [1] (setting [3]) is listed as “○”.
Still for that read-out and setting: the same measure for vitamin E [reference compound]: “○”.

B1: R-spondin1 (protein, UniProt Q2MKA7 21-263, looked up)
R-spondin-1: SRGIKGKRQRRISAEGSQACAKGCELCSEVNGCLKCSPKLFILLERNDIRQVGVCLPSCPPGYFDARNPDMNKCIKCKIEHCEACFSHNFCTKCKEGLYLHKGRCYPACPEGSSAANGTMECSSPAQCEMSEWSPWGPCSKKQQLCGFRRGSEERTRRVLHAPVGDHAACSDTKETRRCTVRRVPCPEGQKRRKGGQGRRENANRNLARKESKEAGAGSRRRKGQQQQQQQGTVGPLTSAGPA
notes: medium additive, supplier R&D
For B1, the “Level of promoting proliferation” value in test [1] (setting [3]) is “○”.

B2: amphiregulin (protein, UniProt P15514 101-187, looked up)
Amphiregulin: SVRVEQVVKPPQNKTESENTSDKPKRKKKGGKNGKNRRNRKKKNPCNAEFQNFCIHGECKYIEHLEAVTCKCQQEYFGERCGEKSMK
modifications: Amphiregulin
notes: medium additive, supplier MCE
B2: in test [1] (setting [3]), the “Level of promoting proliferation” value is “+”. For the same molecule, the “concentration at which the cell proliferation effect is most significant” value in test [2] (setting [4]) stood at 0.003 µg/mL. For the same molecule, the “preferable amount according to the results of this example” value in test [2] (preferably, FIGS. 2A-2L) lay in the range of 1 to 81 ng/mL. Also, the “proliferation-promoting effect” value in test [2] (setting [5]) is listed as “significant proliferation-promoting effect”.

B3: human fibroblast growth factor −10 (protein, UniProt O15520 38-208, looked up)
Fibroblast growth factor 10: QALGQDMVSPEATNSSSSSFSSPSSAGRHVRSYNHLQGDVRWRKLFSFTKYFLKIEKNGKVSGTKKENCPYSILEITSVEIGVVAVKAINSNYYLAMNKKGKLYGSKEFNNDCKLKERIEENGYNTYASFNWQHNGRQMYVALNGKGAPRRGQKTRRKNTSAHFLPMVVHS
notes: medium additive, supplier sino biological
For B3, the “Level of promoting proliferation” value in test [1] (setting [3]) was “○”.

B4: noggin (protein, UniProt Q13253 28-232, looked up)
Noggin: QHYLHIRPAPSDNLPLVDLIEHPDPIFDPKEKDLNETLLRSLLGGHYDPGFMATSPPEDRPGGGGGAAGGAEDLAELDQLLRQRPSGAMPSEIKGLEFSEGLAQGKKQRLSKKLRRKLQMWLWSQTFCPVLYAWNDLGSRFWPRYVKVGSCFSKRSCSVPEGMVCKPSKSVHLTVLRWRCQRRGGQRCGWIPIQYPIISECKCSC
notes: medium additive, supplier R&D
B4: the “Level of promoting proliferation” value in test [1] (setting [3]) is “○”.

B5: fibroblast growth factors 7 (protein, UniProt P21781 32-194, looked up)
Fibroblast growth factor 7: CNDMTPEQMATNVNCSSPERHTRSYDYMEGGDIRVRRLFCRTQWYLRIDKRGKVKGTQEMKNNYNIMEIRTVAVGIVAIKGVESEFYLAMNKEGKLYAKKECNEDCNFKELILENHYNTYASAKWTHNGGEMFVALNQKGIPVRGKKTKKEQKTAHFLPMAIT
notes: medium additive, supplier R&D
Turning to B5, the “Level of promoting proliferation” value in test [1] (setting [3]) was “○”.
